Measurements reported in patent publication US4705777A, “Cationic oligopeptides having microbicidal activity” (priority 1985, dated 1987).

What was measured:
[1] = system: Streptococcus agalactiae Type IIIU; test: Antibacterial activity of rabbit granulocyte peptides (Table III), S. agalactiae Type IIIU; format: cell-based; settings: 50 μg/ml, 20 min, 37° C., 10 mM sodium phosphate buffer pH 7.4
Procedure: (§1) The procedure parallels that reported in Lehrer et al., Infection and Immunity (1983) 42:10-14. […] The subculture was grown at 37° C. for 4 h with shaking to provide mid-logarithmic phase organisms that were washed twice with buffer by centrifugation (2000×g, 10 min), and then quantitated spectrophotometrically at 620 nm, with reference to previously established CFU/Optical Density relationships. Bacteria were suspended and experiments were performed in 10 mM sodium phosphate buffer, pH 7.4. In some experiments, buffers were supplemented with 0.14 M NaCl ("high" ionic strength). […] In some experiments, 10 mM phosphate buffer with a pH of 5.8 and conductivity of 1.36 mMHO was used. Peptide "stock solutions" were prepared at 500 μg/ml (microbiuret assay) in 0.01% acetic acid, and stored at -20° C. Typically, incubation mixtures contained 1×10^5 bacterial CFU and 5 μg of peptide in 100 μl of buffer. After incubation for 20 min at 37° C., 900 μl of the same buffer was added, and two additional serial tenfold dilutions were made with that buffer. Duplicate 100 μl aliquots from the three serial dilutions were spread over appropriate nutrient agar plates and incubated for 24-72 h to insure full colony development. Killing of microorganisms was expressed as the logarithm10 No /N, where No represented the initial colony count and N represented the colony count after incubation with peptide. There was no significant alteration in colony count when any of the test organisms were exposed to peptide-free buffer for 20 min.

[2] = system: Streptococcus agalactiae Type-I-A; test: Antibacterial activity of rabbit granulocyte peptides (Table III), S. agalactiae Type-I-A; format: cell-based; settings: 50 μg/ml, 20 min; for Bactericidal activity log10 No /N, Streptococcus agalactiae Type 1A, pH 5.8: 10 mM phosphate buffer pH 5.8; for Bactericidal activity log10 No /N, Streptococcus agalactiae Type-I-A: 37° C., 10 mM sodium phosphate buffer pH 7.4; for Bactericidal activity log10 No /N, Streptococcus agalactiae Type 1A, "High" ionic strength: buffer pH 7.4 supplemented with 0.14 M NaCl
Procedure: as §1

[3] = system: Klebsiella pneumoniae ATCC 13883; test: Antibacterial activity of rabbit granulocyte peptides (Table III), K. pneumoniae; format: cell-based; settings: 50 μg/ml, 20 min; for Bactericidal activity log10 No /N, Klebsiella pneumoniae ATCC 13883, pH 5.8: 10 mM phosphate buffer pH 5.8; for Bactericidal activity log10 No /N, Klebsiella pneumoniae ATCC 13883: 37° C., 10 mM sodium phosphate buffer pH 7.4; for Bactericidal activity log10 No /N, Klebsiella pneumoniae ATCC 13883, "High" ionic strength: buffer pH 7.4 supplemented with 0.14 M NaCl
Procedure: as §1

[4] = system: Hemophilus influenzae Type 3A; test: Antibacterial activity of rabbit granulocyte peptides (Table III), H. influenzae; format: cell-based; settings: 50 μg/ml, 20 min, 37° C., 10 mM sodium phosphate buffer pH 7.4
Procedure: as §1

[5] = system: Escherichia coli ATCC 29648; test: Antibacterial activity of rabbit granulocyte peptides (Table III), E. coli; format: cell-based; settings: 50 μg/ml, 20 min, 37° C., 10 mM sodium phosphate buffer pH 7.4
Procedure: as §1

[6] = system: Pseudomonas aeruginosa PAO 579; test: Antibacterial activity of rabbit granulocyte peptides (Table III), P. aeruginosa; format: cell-based; settings: 50 μg/ml, 20 min; for Bactericidal activity log10 No /N, Pseudomonas aeruginosa PAO 579, pH 5.8: 10 mM phosphate buffer pH 5.8; for Bactericidal activity log10 No /N, Pseudomonas aeruginosa PAO 579: 37° C., 10 mM sodium phosphate buffer pH 7.4; for Bactericidal activity log10 No /N, Pseudomonas aeruginosa PAO 579, "High" ionic strength: buffer pH 7.4 supplemented with 0.14 M NaCl
Procedure: as §1

[7] = system: Staphylococcus aureus J.F.; test: Antibacterial activity of rabbit granulocyte peptides (Table III), S. aureus J.F.; format: cell-based; settings: 50 μg/ml, 20 min, 37° C., 10 mM sodium phosphate buffer pH 7.4
Procedure: as §1

[8] = system: Staphylococcus aureus 502A; test: Antibacterial activity of rabbit granulocyte peptides (Table III), S. aureus 502A; format: cell-based; settings: 50 μg/ml, 20 min, 37° C., 10 mM sodium phosphate buffer pH 7.4
Procedure: as §1

[9] = system: Staphylococcus aureus 566; test: Antibacterial activity of rabbit granulocyte peptides (Table III), S. aureus 566; format: cell-based; settings: 50 μg/ml, 20 min, 37° C., 10 mM sodium phosphate buffer pH 7.4
Procedure: as §1

Serratia marcescens = test: Antibacterial activity of rabbit granulocyte peptides (Table III), S. marcescens; format: cell-based; settings: 50 μg/ml, 20 min, 37° C., 10 mM sodium phosphate buffer pH 7.4
Procedure: as §1

[10] = system: Bordetella bronchiseptica UCLA-342; test: Antibacterial activity of rabbit granulocyte peptides (Table III), B. bronchiseptica; format: cell-based; settings: 50 μg/ml, 20 min, 37° C., 10 mM sodium phosphate buffer pH 7.4
Procedure: as §1

[11] = system: Staphylococcus epidermidis UCLA-622; test: Antibacterial activity of rabbit granulocyte peptides (Table III), S. epidermidis; format: cell-based; settings: 50 μg/ml, 20 min, 37° C., 10 mM sodium phosphate buffer pH 7.4
Procedure: as §1

[12] = system: Streptococcus pneumoniae Type III; test: Antibacterial activity of rabbit granulocyte peptides (Table III), S. pneumoniae; format: cell-based; settings: 50 μg/ml, 20 min, 37° C., 10 mM sodium phosphate buffer pH 7.4
Procedure: as §1

[13] = system: Listeria monocytogenes 450; test: Antibacterial activity of rabbit granulocyte peptides (Table III), L. monocytogenes; format: cell-based; settings: 50 μg/ml, 20 min; for Bactericidal activity log10 No /N, Listeria monocytogenes 450, pH 5.8: 10 mM phosphate buffer pH 5.8; for Bactericidal activity log10 No /N, Listeria monocytogenes 450: 37° C., 10 mM sodium phosphate buffer pH 7.4; for Bactericidal activity log10 No /N, Listeria monocytogenes 450, "High" ionic strength: buffer pH 7.4 supplemented with 0.14 M NaCl
Procedure: as §1

E. coli = test: Antibacterial action, % killing (Table II), E. coli; format: cell-based, Escherichia coli; settings: 50 μg/ml peptide, 10^7 bacterial cells/ml, 20 min, 37°
Procedure: (§2) To test antibacterial action of the polypeptides, the following protocol was employed. Various species at 10^7 bacterial cells/ml are incubated for 20 min at 37° with 50 μg/ml of the candidate peptide. Colony counts (viable organisms) are made at the outset of the incubation--beforeaddition of the candidate peptide--and after 20 min of incubation with the candidate peptide.

L. monocytogenes = test: Antibacterial action, % killing (Table II), L. monocytogenes; format: cell-based, Listeria monocytogenes; settings: 50 μg/ml peptide, 10^7 bacterial cells/ml, 20 min, 37°
Procedure: as §2

S. aureus 502A = test: Antibacterial action, % killing (Table II), S. aureus 502A; format: cell-based, Staphylococcus aureus; settings: 50 μg/ml peptide, 10^7 bacterial cells/ml, 20 min, 37°
Procedure: as §2

Ps. aeruginosa = test: Antibacterial action, % killing (Table II), Ps. aeruginosa; format: cell-based, Pseudomonas aeruginosa; settings: 50 μg/ml peptide, 10^7 bacterial cells/ml, 20 min, 37°
Procedure: as §2

S. albus = test: Antibacterial action, % killing (Table II), S. albus; format: cell-based, Staphylococcus albus; settings: 50 μg/ml peptide, 10^7 bacterial cells/ml, 20 min, 37°
Procedure: as §2

H. influenzae = test: Antibacterial action, % killing (Table II), H. influenzae; format: cell-based, Haemophilus influenzae; settings: 50 μg/ml peptide, 10^7 bacterial cells/ml, 20 min, 37°
Procedure: as §2

Row | Substance | Bactericidal activity log10 No /N, Streptococcus agalactiae Type IIIU [1] [log10] | Bactericidal activity log10 No /N, Streptococcus agalactiae Type 1A, pH 5.8 [2] [log10] | Bactericidal activity log10 No /N, Streptococcus agalactiae Type-I-A [2] [log10] | Bactericidal activity log10 No /N, Streptococcus agalactiae Type 1A, "High" ionic strength [2] [log10] | Bactericidal activity log10 No /N, Klebsiella pneumoniae ATCC 13883, pH 5.8 [3] [log10] | Bactericidal activity log10 No /N, Klebsiella pneumoniae ATCC 13883 [3] [log10] | Bactericidal activity log10 No /N, Klebsiella pneumoniae ATCC 13883, "High" ionic strength [3] [log10] | Bactericidal activity log10 No /N, Hemophilus influenzae Type 3A [4] [log10] | Bactericidal activity log10 No /N, Escherichia coli ATCC 29648 [5] [log10] | Bactericidal activity log10 No /N, Pseudomonas aeruginosa PAO 579, pH 5.8 [6] [log10] | Bactericidal activity log10 No /N, Pseudomonas aeruginosa PAO 579 [6] [log10] | Bactericidal activity log10 No /N, Pseudomonas aeruginosa PAO 579, "High" ionic strength [6] [log10] | Bactericidal activity log10 No /N, Staphylococcus aureus J.F. [7] [log10] | Bactericidal activity log10 No /N, Staphylococcus aureus 502A [8] [log10] | Bactericidal activity log10 No /N, Staphylococcus aureus 566 [9] [log10] | Bactericidal activity log10 No /N, Serratia marcescens (Serratia marcescens) [log10] | Bactericidal activity log10 No /N, Bordetella bronchiseptica UCLA-342 [10] [log10] | Bactericidal activity log10 No /N, Staphylococcus epidermidis UCLA-622 [11] [log10] | Bactericidal activity log10 No /N, Streptococcus pneumoniae Type III [12] [log10] | Bactericidal activity log10 No /N, Listeria monocytogenes 450, pH 5.8 [13] [log10] | also measured
1 | val phe cys thr cys arg gly phe leu cys gly ser gly glu arg ala ser gly ser cys thr ile asn gly val arg his thr leu cys cys arg [NP-5] | 0.4 | 0.0 | 0.5 | 0.0 | 0.1 | 1.2 | 0.0 | 1.2 | 0.2 | 0.1 | 0.7 | 0.0 | 0.1 | 0.2 | 0.4 | 1.2 | 0.0 | 0.4 | 1.9 | 0.1 | Bactericidal activity log10 No /N, Listeria monocytogenes 450 [13]: 0.5 log10; Bactericidal activity log10 No /N, Listeria monocytogenes 450, "High" ionic strength [13]: 0.2 log10
2 | val ser cys thr cys arg arg phe ser cys gly phe gly glu arg ala ser gly ser cys thr val asn gly val arg his thr leu cys cys arg arg [NP-4] | 0.2 | 0.0 | 0.1 | 0.0 | 0.3 | 0.2 | 0.0 | 1.3 | 0.1 | 0.0 | 0.2 | 0.0 | 0.1 | 0.1 | 0.2 | 1.3 | 0.1 | 0.2 | 4.3 | 0.0 | Bactericidal activity log10 No /N, Listeria monocytogenes 450 [13]: 0.1 log10; Bactericidal activity log10 No /N, Listeria monocytogenes 450, "High" ionic strength [13]: 0.0 log10
3 | val val cys ala cys arg arg ala leu cys leu pro arg glu arg arg ala gly phe cys arg ile arg gly arg ile his pro leu cys cys arg arg [NP-1] | 3.9 | 0.1 | 2.3 | 0.0 | 0.6 | 3.0 | 0.1 | > 1.1 | 1.9 | 0.3 | > 4.2 | 0.1 | 2.7 | 2.3 | > 4.1 | 1.0 | 0.1 | > 4.1 | 3.8 | 0.2 | % Killing, E. coli (E. coli): B (90-99% killing); % Killing, L. monocytogenes (L. monocytogenes): A (>99% killing); % Killing, S. aureus 502A (S. aureus 502A): D (<50% killing); % Killing, Ps. aeruginosa (Ps. aeruginosa): A (>99% killing); % Killing, S. albus (S. albus): B (90-99% killing); % Killing, H. influenzae (H. influenzae): A (>99% killing); Bactericidal activity log10 No /N, Listeria monocytogenes 450 [13]: 2.1 log10; Bactericidal activity log10 No /N, Listeria monocytogenes 450, "High" ionic strength [13]: 0.1 log10
